Assay results as given in patent publication US20080081781A1, “Methods and compositions for the treatment of metabolic syndrome” (priority 2004, published 2008).

What was measured:
[1] = tested on: LDLR; assay: Cell surface LDLR protein on Bel-7402 cells (FACS); format: cell-based, human; details: Bel-7402 cells treated with 5 μg/ml
Experimental: Bel-7402 cells treated with 5 μg/ml of berberine were detached with cell removal buffer containing EDTA, washed and resuspended in FACS solution (PBS with 0.5% BSA and 0.02% sodium azide) at a density of 1×10^6 cells/ml. Cells were then incubated with monoclonal antibody to LDLR (Santa Cruz Biotechnology, Inc., Santa Cruz, Calif.) at a final dilution of 1:50 and left at room temperature for 1 hour. The cells were then reacted with isotope matched, nonspecific mouse IgG as a control for nonspecific staining. The cells were then washed and stained with FITC conjugated goat antibody to mouse IgG (Santa Cruz Biotechnology, Inc., Santa Cruz, Calif., 1:100 dilution) and the fluorescence intensity was analyzed by FACS (FACSort, Becton Dickinson, Franklin Lakes, N.J.).

[2] = tested on: hyperglycemic rats; assay: Hyperglycemic HFHC diet/streptozotocin Wistar rats: blood glucose, serum insulin, ISI, serum lipids; format: in vivo, Wistar rat; details: for reduction of fasting blood glucose vs untreated rats on same HFHC diet: 14 days
Experimental: Nineteen Wistar rats (Male, 250g, the Institute of Experiment Animal Sciences, Chinese Academy of Medical Sciences, Beijing) were fed high fat and high cholesterol (HFHC) diet containing 25% lard, 20% sucrose and 5% yolk powder (Institute of Experiment Animal Sciences) for 4 weeks to induce insulin resistance status. Then, after fasting for 24 hours, 20 mg/kg of streptozotocin (Sigma) dissolved in 0.01 M citric acid buffer (pH 4.3) was injected via the tail vein. A week later, rats with blood glucose concentrations over 11.1 mmol/L were considered hyperglycemic and divided into two groups of 7 and one group of 5 as the control.
The rats in the two groups of 7 were treated with berberine orally twice a day for 14 days, at 8:00 am and 5:00 pm, with a total dose of berberine at 75 mg/kg/day or 150 mg/kg/day, respectively. Blood samples were taken by tail snip after 4 hours fasting on indicating days of treatment, and blood glucose was measured. On the last day of the experiment, all of the rats fasted overnight and were then sacrificed.
The livers were dissected and stored in liquid nitrogen for RNA extraction, real-time RT-PCR and PKC activity assay. Total blood samples were also collected to assay fasting blood glucose and serum insulin levels. The insulin levels were analyzed using radio-immunoassay (Linco Research, St Charles, Mo.). The insulin sensitivity indexes (ISI) were calculated according to the formula: 10^4/(fasting serum insulin X fasting blood glucose) (Hanson, Am. J. Epidemiol. 15 1(2), 190-198 (2000)). The insulin level and ISI of normal rats were also determined for comparison. […] It also elevated the fasting blood glucose from 7 to 12.8 mmol/L (P<0.001).

[3] = tested on: patients with metabolic syndrome; assay: Berberine in patients with metabolic syndrome (Table 10); format: in vivo, human; details: for Blood Pressure / Blood Cholesterol / Blood Insulin / Blood Triglyceride / FBG (fasting blood glucose): patients with metabolic syndrome (n = 28); for Blood Cholesterol / Blood Insulin / Blood Triglyceride / FBG (fasting blood glucose): means ± SEs
Text: Twenty-eight patients 28 (male/female, 17/11; age, 57±8 y) were diagnosed as having metabolic syndrome if they met three or more of the following criteria: fasting blood glucose>7 mmol/L, serum triglyceride>1.7 mmol/L, fasting blood insulin>13 mmcU/mL, blood pressure>135/85 and/or BMI>23. (Eckel, Lancet 365 (9468), 1415-28 (2005); Executive Summary, JAMA 285, 2486-2497 (2001); Balkau, Diabet. Med. 16, 442-443 (1999)) The patients were enrolled in this study at the Nanjing First Hospital, Nanjing, China. The patients were requested to end previous medications or therapies for at least two weeks prior to the beginning of the study.
The patients were then given 1 gram of berberine per day, orally for two months. Blood samples were taken both before and after two months of berberine treatment. Fasting blood levels of glucose, LDL-c, cholesterol, HDL-c, triglyceride and blood insulin were measured using standard methods routinely applied in hospitals. Liver and kidney functions were also monitored in the patients.

[4] = tested on: InsR; assay: Cell surface InsR expression in HepG2 cells (flow cytometry); format: cell-based, human; details: HepG2, 2.5-15 μg/ml, eight hours
Experimental: The effect of berberine was also time-dependent. HepG2 cells were treated with 7.5 μg/ml for 0, 2, 4, 6, 8 or 24 hours and total RNA was isolated as described above for slot blot and RT-PCR assays of InsR mRNA and ACTB mRNA expression. The level of InsR mRNA increased 4 h after exposure of cells to berberine and reached the peak level of 2.5-fold of the control at 8 h; the expression of InsR mRNA remained high for at least 24 h (FIG. 16). HepG2 cells cultured with 0, 2.5, 5, 10 or 15 μg/ml of berberine or normal mouse IgG (FIG. 17) for eight hours then detached, washed and resuspended in FACS solution (PBS with 0.5% BSA and 0.02% sodium azide) at a density of 1×10^6 cells/ml. Cells were then incubated with a monoclonal antibody to InsR (NeoMarkers, Fremont, Calif.) at a final dilution of 1:100 (room temperature, 0.5 h). An isotype-matched, nonspecific mouse IgG was used as a control for nonspecific staining. Then, cells were washed and stained with FITC conjugated goat-anti-mouse IgG (Santa Cruz Biotech, 1:200 dilution). The fluorescent intensity was examined by flow cytometry (FAC Sort, Becton Dickinson, Calif.).

[5] = tested on: InsR; assay: InsR expression in Bel-7402 cells; format: cell-based, human; details: Bel-7402 compared with HepG2
Text: The effect of berberine on InsR was further confirmed in another hepatoma cell line, Bel-7402 […] (FIG. 18). […] The expression of PPAR-r mRNA in liver cells was not changed by berberine (data not shown).

[6] = tested on: InsR mRNA; assay: InsR mRNA stability after actinomycin D in HepG2 cells (slot blot); format: cell-based, human; details: HepG2, […] 8 h then actinomycin D; untreated cells 4.4 hr
Experimental: HepG2 cells were treated or untreated with 7.5 μg/ml of berberine for 8 h. Then, 5 μg/ml of actinomycin D was added to block the transcription. Total cellular RNA was harvested at 0, 2, 4, 6, or 8 hours after actinomycin D treatment, and slot-blotted to nitrocellulose membranes as described above. The membranes were respectively hybridized with InsR and ACTB specific probes as described above, and bands were quantitated through densitometry. The InsR mRNA levels were normalized to ACTB, and their remaining percentages are plotted against time and the decaying rate or half-life of InsR mRNA was calculated (FIG. 21B).

[7] = 150 mg/kg/day, 14 day treatment
[8] = After BBR treatment 1 g/day, Bid, 2 months

COc1ccc2cc3[n+](cc2c1OC)CCc1cc2c(cc1-3)OCO2 [berberine]
increase of cell surface LDLR protein expression [1]: 4 times
reduction of fasting blood glucose vs untreated rats on same HFHC diet ([2]; 75 mg/kg/day orally): 22%
reduction of fasting blood glucose vs untreated rats on same HFHC diet ([2]; 150 mg/kg/day orally): 33%
reduction of LDL-c vs control animals on same HFHC diet [2, 7]: 33%
reduction of cholesterol vs control animals on same HFHC diet [2, 7]: 25%
reduction of triglyceride vs control animals on same HFHC diet [2, 7]: 24%
fasting serum insulin levels ([2]; insulin resistant HFHC rats): significantly reduced the serum insulin levels
fasting blood glucose after treatment ([3]; 1 gram per day orally, two months, Mean ±SE, before 10.7±0.56): 8.0 ± 0.45 mmol/L
cholesterol after treatment ([3]; 1 gram per day orally, two months, before 6.1±±0.11): 4.7 ± 0.16 mmol/L
blood pressure after treatment ([3]; 1 gram per day orally, two months, before 156/86): 133/79
Blood Pressure [3, 8]: 133/79
Blood Cholesterol [3, 8]: 4.7 ± 0.16 mmol/L
Blood Insulin [3, 8]: 12.1 ± 1.35 mlU/L
Blood Triglyceride [3, 8]: 1.47 ± 0.14 mmol/L
FBG (fasting blood glucose) [3, 8]: 8.0 ± 0.45 mmol/L
Blood Pressure ([3]; Before BBR treatment): 156/86
Blood Cholesterol ([3]; Before BBR treatment): 6.1 ± 0.11 mmol/L
Blood Insulin ([3]; Before BBR treatment): 17 ± 2.15 mlU/L
Blood Triglyceride ([3]; Before BBR treatment): 2.0 ± 0.22 mmol/L
FBG (fasting blood glucose) ([3]; Before BBR treatment): 10.7 ± 0.56 mmol/L
cell surface InsR expression [4]: increased cell surface expression
InsR expression [5]: identical upregulating effect
turnover rate (half-life) of InsR transcript [6]: 4.7 h
